According to PubChem BioAssay AID1845206 (Molecular Pharmacology Branch, DTP, NCI, 2023):
pIC50: −log10 of the molar value. Where “and” joins values, the source holds several entries; their conditions need not be identical. Equal entries are not always repeated. Calls of active or inactive are those of the source. How the source made its calls: active means viability on the fitted dose curve at most 10% of control; inactive means the rest.

Test system: NCI-H1618 multicellular tumor spheroid viability
Assay: Anticancer human tumor NCI-H1618 cell line growth inhibition;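 further: spheroids exposed to agents for 7 days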
Details: for viability, T/C: stronger effect = lower value; for pIC50: curve of compound; for IC50: compound alone
Source text: Multicellular complex tumor spheroid response to DNA repair inhibitors in combination with DNA-damaging drugs
This study explores the anticancer activities of DNA-damaging drugs and inhibitors of DNA damage repair, both as single agents and in combinations. Complex tumor spheroids comprised of malignant cells, endothelial cells and mesenchymal stem cells served as an in vitro model for human solid tumors. This model system incorporates physiologically relevant features and patient-derived or established malignant cell lines with clinically relevant genetic alterations from many tumor types. Twenty-six patient-derived or established malignant cell lines were evaluated representing sarcoma, melanoma, small cell lung cancer (SCLC), non-small cell lung cancer (NSCLC), as well as bladder, ovarian and pancreatic cancers. The concentration ranges selected for each drug and investigational agent were based upon clinically achievable concentrations if the clinical Cmax of the agent was known.
Compounds. The drugs and compounds olaparib (NSC753686), talazoparib (NSC767125), berzosertib (NSC777718), elimusertib (NSC800525), nedisertib (NSC802822), VX-984 (NSC792969), AZD-1390 (NSC803789), temozolomide (NSC362856), topotecan (NSC609699), trabectedin (NSC813783), staurosporine (NSC755774), and gemcitabine (NSC613327) were obtained from the National Cancer Institute (NCI) Developmental Therapeutics Program Chemical Repository. The FDA-approved anticancer drug set is available from the Developmental Therapeutics Program at https://dtp.cancer.gov/organization/dscb/obtaining/available_plates.htm. […] The stock solutions were prepared in dimethyl sulfoxide (DMSO, Sigma-Aldrich, St. Louis, MO, cat. D2650) at 400-fold the tested concentration and stored at -70 degrees C. Prior to their use, the stock solutions were diluted in fresh medium and the final DMSO concentration in the assay was 0.25% (v/v). All drugs and investigational agents were tested over a range starting from a high concentration at or near the clinical Cmax and decreasing in half-log increments. If the clinical Cmax for an agent had not been determined, the highest concentration tested was 10 microM.
Cell Lines. The patient-derived cancer cell (PDC) lines: 156681-154-R-J1-PDC, 283228-195-R-J1-PDC, 287954-098-R-J1-PDC, 292921-168-R-J2-PDC, 349418-098-R-PDC, 425362-245-T-J1-PDC, 556581-035-R-J1-PDC, and BL0293-F563-PDC were received from the NCI Patient-Derived Models Repository (PDMR, https://pdmr.cancer.gov). The established cell lines HS-SY-2 (RRID:CVCL_8719), MPNST, and SYO-1 (RRID:CVCL_7146) were obtained from the Sloan Kettering Institute. The alveolar soft parts sarcoma cell line ASPS-1 (RRID:CVCL_S738) was established at the NCI and grown from internal seed stocks. The following established cell lines were purchased from the American Type Culture Collection (ATCC, Manassas, VA): G-401 (ATCC, cat. CRL-1441, RRID:CVCL_0270), SW982 (ATCC, cat. HTB-93, RRID:CVCL_1734), VA-ES-BJ (ATCC, cat. CRL-2138, RRID:CVCL_1785), NCI-H719 (ATCC, cat. CRL-5837, RRID:CVCL_1582), NCI-H196 (ATCC, cat. CRL-5823, RRID:CVCL_1509), NCI-H841 (ATCC, cat. CRL-5845, RRID:CVCL_1595), NCI-H1618 (ATCC, cat. CRL-5879, RRID:CVCL_1480), NCI-H1876 (ATCC, cat. CRL-5902, RRID:CVCL_1503), DMS 114 (ATCC, cat. CRL-2066; RRID:CVCL_1174), NCI-H211 (ATCC, cat. CRL-5824; RRID:CVCL_1529), and SW 1271 (ATCC, cat. CRL-2177, RRID:CVCL_1716). The small cell lung cancer cell line COR-L88 was purchased from Sigma-Aldrich (cat. 92031917-1VL, RRID:CVCL_1141). The non-small cell lung cancer cell lines NCI-H226 (RRID:CVCL_1544) and NCI-H322M (RRID:CVCL_1557) were established at the NCI and grown from internal seed stocks. Pooled donor human umbilical vein endothelial cells (HUVEC, Lonza, cat. CC-2519) and human mesenchymal stem cells (hMSC, Lonza, cat. PT-2501) were purchased from Lonza (Walkersville, MD).
Cell Culture. All cells were maintained in an incubator at 37 degrees C and 5% CO2 with 95% humidity. […]

SMILES	viability, T/C (compound 0.0316 µM)	viability, T/C (compound 0.1 µM)	viability, T/C (compound 0.316 µM)	viability, T/C (compound 1 µM)	viability, T/C (compound 3.16 µM)	viability, T/C (compound 10 µM)	pIC50	viability, T/C (compound 0.3 µM)	viability, T/C (compound 0.0949 µM)	viability, T/C (compound 0.949 µM)	viability, T/C (compound 3 µM)	further results
CC(C)n1c(=O)n(C)c2cnc3cc(F)c(-c4ccc(OCCCN5CCCCC5)nc4)cc3c21	92.6% and 97.3% and 82.8%	93.1% and 105%	85.2% and 96.6% and 100%	80.8% and 86.8%	75.5% and 87.7% and 75.1%	58.1% and 89.4% and 54.3%	< 5.00					outcome (compound 0.1 µM): inactive; outcome (compound 1 µM): inactive
CC1COCCN1c1cc(-c2ccnn2C)c2ccnc(-c3ccn[nH]3)c2n1 (stereo not given)	66.6% and 84.9% and 71.4%	36.7% and 35.1% and 32.9%	5.46% and 8.95% and 25.5%	1.99% and 2.55% and 7.57%	1.12% and 1.22% and 2.57%	2.74% and 1.68% and 1.22%	7.22 and 7.15 and 7.19					
CC[C@@]1(O)C(=O)OCc2c1cc1n(c2=O)Cc2cc3c(CN(C)C)c(O)ccc3nc2-1								1.94% [middle of 9 runs]				IC50 (run of 11/07/2019): 9.37 nM [middle of 5 runs]
CNCc1ccc(-c2cc(-c3nc(-c4ccc(S(=O)(=O)C(C)C)cc4)cnc3N)on2)cc1							7.20 and 6.25 and 6.27	25.8% and 85.3% and 90%	25.7% and 95.3% and 102%	18.8% and 21.5% and 11.7%	20.3% and 0.47% and 4.41%	viability, T/C (compound 0.00949 µM): 97.2% and 99.1% and 104%; viability, T/C (compound 0.03 µM): 96.2% and 99.4% and 112%
COc1cc(C)[nH]c(=O)c1CN1CCc2c(Cl)cc(C(OC)C3COC3)c(Cl)c2C1=O (stereo not given)	83.9% and 102% and 58.1%	77.3% and 49.4%	67.3% and 73.7%	76.1% and 83% and 91.4%	69% and 82.6% and 93.8%	65.9% and 85.6% and 65.3%	< 5.00					outcome (compound 0.1 µM): inactive; outcome (compound 0.316 µM): inactive
COc1cc2c(cc1O)CCNC21CSC2c3c(OC(C)=O)c(C)c4c(c3C(COC1=O)N1C(O)C3Cc5cc(C)c(OC)c(O)c5C(C21)N3C)OCO4 (stereo not given)												viability, T/C (compound 30 pM): 95.9% [middle of 10 runs]; viability, T/C (compound 0.0003 µM): 5.95% [middle of 10 runs]; viability, T/C (compound 0.000949 µM): 3.52% [middle of 10 runs]; viability, T/C (compound 0.003 µM): 2.99% [middle of 10 runs]; IC50 (run of 12/16/2019): 0.124 nM [middle of 9 runs]
COc1ccc([C@@H](O)c2cc(-c3ncnc4cc(N5CCOCC5)ccc34)c(F)cc2Cl)nn1	84% and 103% and 101%	109% and 97.9% and 84.5%	108% and 103% and 83.4%	98.4% and 98.8% and 76%	84.1% and 83% and 83.7%	22.8% and 78.7% and 32.8%	5.22 and < 5.00 and 5.17					
Cc1cc(C)c(CNC(=O)c2cc(-c3ccc(CN4CCOCC4)cc3)cc3c2cnn3C2CCCC2)c(=O)[nH]1	90.5% and 97.2% and 101%	103% and 101% and 107%	89.7% and 98.2% and 101%	94.6% and 94.8% and 99%	89% and 95.3% and 95.9%	76.2% and 95.1% and 88.9%	< 5.00					
Cc1sc2c(c1C)C(c1ccc(Cl)cc1)=NC(CC(=O)Nc1ccc(O)cc1)c1nnc(C)n1-2 (stereo not given)							5.67 and 5.69 and 6.25	102% and 95.7% and 56.4%	100%	91.1% and 80.5% and 47%	33.8% and 35.4% and 16.8%	viability, T/C (compound 0.00949 µM): 109% (2×) and 110%; viability, T/C (compound 0.03 µM): 105% and 108% and 115%; outcome (compound 0.0949 µM): inactive
Cn1ncnc1[C@H]1c2n[nH]c(=O)c3cc(F)cc(c23)N[C@@H]1c1ccc(F)cc1								13.2% and 5.31% and 10.7%	88.2% and 22.8% and 79.8%	1.9% and 23.1% and 3.83%	1.81% and 2.3% and 3.2%	viability, T/C (compound 0.00949 µM): 92.2% and 26.7% and 101%; viability, T/C (compound 0.03 µM): 91.8% and 23.5% and 84.8%
Cn1nnc2c(C(N)=O)ncn2c1=O					19.8% [middle of 10 runs]	5.8% [middle of 10 runs]						viability, T/C (compound 31.6 µM): 10.4% [middle of 10 runs]
O=C(c1cc(Cc2n[nH]c(=O)c3ccccc23)ccc1F)N1CCN(C(=O)C2CC2)CC1							5.74 and 4.96 and 5.16	103% and 90.6%	98.1% and 105% and 94.9%	83.7% and 96.2% and 98.8%	23.2% and 98.6% and 91%	outcome (compound 0.3 µM): inactive; viability, T/C (compound 9.49 µM): 23.5% and 56.3% and 34.1%; viability, T/C (compound 30 µM): 25% and 3.78% and 9.4%
[2H]c1nc(C)nc([2H])c1-c1cc(NC[C@@H](C)c2cccc3c(C(=O)NC)ccnc23)ncn1	97% and 100% and 12.9%	98.5% and 98% and 8.24%	101% and 117%	96.4% and 101% and 142%	88.6% and 94% and 106%	97.2% and 102% and 91.8%						outcome (compound 0.316 µM): inactive
